What all share (format): cell-based
Holding throughout (conditions): 2-APB (1 mM)-evoked, –60 mV, read-out: IC50 for inhibition of TRPV3 mutant

The target of one assay is T1, TRPV3 I674A (Mus musculus, UniProt Q8K424, I674A).
T1 construct: expressed in transfected cells; host or cells: HEK 293T
The assay can be described thus: Whole-cell recording of TRPV3 mutant I674A in HEK 293T cells. The source says:
(§1) The WT mouse TRPV3 (mTRPV3), human TRPV3 (hTRPV3), rat TRPV1, rat TRPV2, rat TRPM8, and mouse TRPA1 cDNAs were generously provided by Dr. Feng Qin (State University of New York at Buffalo, Buffalo, USA). The GFP-mTRPV3 WT and the mutants (mTRPV3-G573S and mTRPV3-G573C) in pcDNA4/TO vector were gifts from Dr. Michael X Zhu (The University of Texas Health Science Center at Houston, Houston, USA). The WT fTRPV3 was kindly provided by Dr. Makoto Tominaga (Department of Physiological Sciences, SOKENDAI, Okazaki, Japan). All mutations were made using the overlap-extension polymerase chain reaction method as previously described ([Tian et al., 2019]). The resulting mutations were then verified by DNA sequencing. […]
(§2) Conventional whole-cell and excised patch-clamp recording methods were used. […] For a subset of recordings, currents were amplified using an Axopatch 200B amplifier (Molecular Devices, Sunnyvale, CA) and recorded through a BNC-2090/MIO acquisition system (National Instruments, Austin, TX) using QStudio developed by Dr. Feng Qin at State University of New York at Buffalo. […] As determined by the conductance tests, the solution around a patch under study was fully controlled by the application of a flow rate of 100 μl/min or greater. […]

A further assay deals with T2, TRPV3 L655A (Mus musculus, UniProt Q8K424, L655A).
T2 construct: expressed in transfected cells; host or cells: HEK 293T
T2 sequence (Q8K424 whole entry L655A): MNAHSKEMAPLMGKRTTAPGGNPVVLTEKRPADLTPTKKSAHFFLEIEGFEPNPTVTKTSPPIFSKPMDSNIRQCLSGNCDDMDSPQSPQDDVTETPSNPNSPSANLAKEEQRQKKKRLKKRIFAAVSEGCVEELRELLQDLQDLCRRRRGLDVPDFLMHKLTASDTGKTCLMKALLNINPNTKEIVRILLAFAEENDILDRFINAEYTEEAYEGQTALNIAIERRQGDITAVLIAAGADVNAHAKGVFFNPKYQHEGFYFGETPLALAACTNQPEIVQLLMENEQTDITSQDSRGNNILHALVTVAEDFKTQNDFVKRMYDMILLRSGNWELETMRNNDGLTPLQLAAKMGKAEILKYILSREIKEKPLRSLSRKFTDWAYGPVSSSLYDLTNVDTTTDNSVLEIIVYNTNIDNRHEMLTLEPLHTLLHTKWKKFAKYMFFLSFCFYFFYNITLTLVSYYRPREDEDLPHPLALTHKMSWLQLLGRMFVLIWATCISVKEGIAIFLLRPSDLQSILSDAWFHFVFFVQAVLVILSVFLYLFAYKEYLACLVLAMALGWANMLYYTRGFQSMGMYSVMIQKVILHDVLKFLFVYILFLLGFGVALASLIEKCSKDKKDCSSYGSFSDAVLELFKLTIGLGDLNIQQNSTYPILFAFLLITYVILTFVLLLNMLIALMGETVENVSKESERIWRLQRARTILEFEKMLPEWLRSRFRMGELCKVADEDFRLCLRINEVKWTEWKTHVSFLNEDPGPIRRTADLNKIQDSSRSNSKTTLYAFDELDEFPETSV
The assay can be described thus: Whole-cell recording of TRPV3 mutant L655A in HEK 293T cells.
Text: as §1, §2

A further assay has as its target T3, TRPV3 I644W (Mus musculus, UniProt Q8K424, I644W).
T3 construct: expressed in transfected cells; host or cells: HEK 293T
The assay can be described thus: Whole-cell recording of TRPV3 mutant I644W in HEK 293T cells.
Text: as §1, §2

A further assay concerns the target T4, TRPV3 I659A (Mus musculus, UniProt Q8K424, I659A).
T4 construct: expressed in transfected cells; host or cells: HEK 293T
The experiment in a line: Whole-cell recording of TRPV3 mutant I659A in HEK 293T cells.
Text: as §1, §2

The results in this text go back to PMC8112869, “Therapeutic inhibition of keratinocyte TRPV3 sensory channel by local anesthetic dyclonine” (eLife, 2021).

T1 sequence (Q8K424 whole entry I674A): as the sequence (Q8K424 whole entry L655A) above, with A655L, I674A counted along it
T3 sequence (Q8K424 whole entry I644W): as the sequence (Q8K424 whole entry L655A) above, with I644W, A655L counted along it
T4 sequence (Q8K424 whole entry I659A): as the sequence (Q8K424 whole entry L655A) above, with A655L, I659A counted along it

For orientation: IC50 means the midpoint of a concentration-inhibition curve. Turning to `CCCCOc1ccc(C(=O)CCN2CCCCC2)cc1` [dyclonine], the IC50 at TRPV3 I674A came out at 15.1 ± 2.1 µM; at TRPV3 L655A, 287 ± 10.4 µM; on TRPV3 I644W, 26.1 ± 2.8 µM; at TRPV3 I659A, 560 ± 60 nM.
